Drawing on doi:10.1101/2021.03.24.436638v1 (biorxiv, 2021), this text covers IC50 for one compound.

As a reminder, the IC50 is the concentration that gives 50% inhibition. The low end stands for greater potency in that assay, the high end for weaker potency in that assay.

The assay concerns the target T1, GlyT2 (wtGlyT2) (Rattus norvegicus, UniProt P58295).
T1 sequence (P58295 1-799): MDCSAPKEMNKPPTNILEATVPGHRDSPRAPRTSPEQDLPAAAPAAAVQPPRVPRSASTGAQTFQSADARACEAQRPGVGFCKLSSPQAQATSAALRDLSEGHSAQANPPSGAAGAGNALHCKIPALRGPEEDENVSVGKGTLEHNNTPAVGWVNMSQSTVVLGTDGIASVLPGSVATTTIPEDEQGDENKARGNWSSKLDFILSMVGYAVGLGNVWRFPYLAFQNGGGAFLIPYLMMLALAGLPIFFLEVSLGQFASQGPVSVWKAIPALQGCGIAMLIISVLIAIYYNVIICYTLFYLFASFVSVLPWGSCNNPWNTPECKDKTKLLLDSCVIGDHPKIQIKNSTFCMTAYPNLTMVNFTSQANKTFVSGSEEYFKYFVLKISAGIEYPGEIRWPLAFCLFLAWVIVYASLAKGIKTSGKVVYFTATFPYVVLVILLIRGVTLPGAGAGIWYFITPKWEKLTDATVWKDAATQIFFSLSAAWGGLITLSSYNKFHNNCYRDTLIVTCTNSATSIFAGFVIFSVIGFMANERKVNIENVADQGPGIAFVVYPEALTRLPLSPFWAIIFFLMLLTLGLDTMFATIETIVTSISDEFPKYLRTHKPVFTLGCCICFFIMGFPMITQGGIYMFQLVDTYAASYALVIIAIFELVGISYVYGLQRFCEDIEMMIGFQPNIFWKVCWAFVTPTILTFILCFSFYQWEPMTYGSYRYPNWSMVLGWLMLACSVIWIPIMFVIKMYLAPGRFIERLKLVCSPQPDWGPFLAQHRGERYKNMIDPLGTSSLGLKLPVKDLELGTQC
The experiment in a line: [3H]glycine uptake inhibition in transfected COS7 cells. Type of assay: cell-based.

The compound `CCCCC/C=C\C/C=C\C/C=C\C/C=C\CCCC(=O)NCC(=O)O` [N-arachidonoyl glycine] yielded an IC50 of 67 ± 23 µM.
